Patent publication US20260240798A1, “SOLID FORMS OF RXFP1 MODULATORS” (ASTRAZENECA AB, priority 2022, published 2026)
Converted amounts (≈) assume the structure as drawn.

Key:
[1] = Solubility of amorphous Compound (I) in pH 1.2 SGF, turbidimetric method (Test I); assay type: physicochemical; settings: 37° C.
Protocol: 10 μL of the stock solution was rapidly injected into 990 μL of stabilizer solution containing 0.2% w/w PVPK30 and 0.2% w/w Pluronic F127 and 0.25 mM SDS aqueous solution under a few seconds of ultrasonic treatment to make a 1 mM amorphous nanosuspension. This formulation is further diluted to 0.25 mM with purified water.
The bulk concentration in equilibrium with amorphous particles is determined at 37° C. by a turbidimetric method (described in Lindfors et. al., Langmuir, 2006, 22(3), 911-916). Small volumes of drug suspension are successively added directly to a fluorescence cuvette containing 2000 μL simulated gastric fluid pH 1.2 (SGF) and are then mixed to give the desired concentrations. The light scattering intensity at 700 nm is recorded at a scattering angle of 90° as a function of total drug concentration. As a light scattering setup, a Perkin-Elmer LS 55 Luminescence Spectrometer is used, setting both the emission and excitation wavelengths to 700 nm. Slit excitation is set to 2.5 nm and slit emission is set to 5 nm. Particles are allowed to dissolve for at least 30 seconds prior to measurements starting. Data are then collected for 1 minute and a mean light scattering intensity is calculated. The solubility examination was performed within 45 min of the formation of the amorphous nanosuspension.
At low concentrations the particles dissolve, while at concentrations above the solubility, the particles remain suspended, leading to an almost linear increase in light scattering intensity as a function of total concentration.

Human Plasma Protein = Human Plasma Protein Binding (Test B); assay type: in vitro ADME; settings: fraction unbound (fu)
Protocol: Human Plasma Protein Binding (Test B)
The assay was conducted according to the Human Plasma Protein Binding Assay described in pages 167-170 of Wernevik, J. et al., “A Fully Integrated Assay Panel for Early Drug Metabolism and Pharmacokinetics Profiling”, Assay and Drug Development Technologies, 2020, 18(4), 157-179. Data are reported in Table 1 as fraction unbound (fu) (% free). Where the assay was run multiple times for the same compound, the arithmetic mean is reported.

[2] = Solubility (pH 7.4) (Test F); assay type: physicochemical; settings: pH 7.4, aqueous buffer
Protocol: Solubility (pH 7.4) (Test F)
The assay was conducted according to the Solubility Assay described in pages 164-167 of Wernevik, J. et al., “A Fully Integrated Assay Panel for Early Drug Metabolism and Pharmacokinetics Profiling”, Assay and Drug Development Technologies, 2020, 18(4), 157-179. Where the assay was run multiple times for the same compound, the arithmetic mean is reported.

[3] = Solubility of crystalline Form A of Compound (I) in pH 1.2 SGF, shake-flask (Test J); assay type: physicochemical; settings: simulated gastric fluid pH 1.2 (SGF), thermodynamic from solid, 37° C., 24 h agitation
Protocol: Crystalline solubility in simulated gastric fluid pH 1.2 (SGF) was measured using a miniaturized shake-flask method (24 h agitation at 37° C.).
The samples were agitated at 37° C. for 24 hours in an Eppendorf shaker, agitation speed 1000 rpm. The samples were then centrifuged at 10000 RPM for 15 minutes, 37° C. Approximately 500 μL of the supernatant was withdrawn with automatic pipette to a new vial and centrifuged again for 15 min at 10000 rpm, 37° C. Then from the second centrifugation, samples were taken with automatic pipette to final dilution. pH was measured in the equilibrated remaining sample solution after the second centrifugation. XRPD was used to confirm that no form change had occurred.

human RXFP1 [4] = target: T1, human RXFP1 (Homo sapiens, UniProt Q9HBX9); test: Human RXFP1 Phospho-ERK Assay (Test H); assay type: cell-based; settings: HEK293s cells stably transfected with human RXFP1; read-out: Test H phospo-ERK assay EC50
T1 construct: expressed in transfected cells; host or cells: HEK293s cells, vector pIRESneo3
T1 sequence (Q9HBX9 1-757): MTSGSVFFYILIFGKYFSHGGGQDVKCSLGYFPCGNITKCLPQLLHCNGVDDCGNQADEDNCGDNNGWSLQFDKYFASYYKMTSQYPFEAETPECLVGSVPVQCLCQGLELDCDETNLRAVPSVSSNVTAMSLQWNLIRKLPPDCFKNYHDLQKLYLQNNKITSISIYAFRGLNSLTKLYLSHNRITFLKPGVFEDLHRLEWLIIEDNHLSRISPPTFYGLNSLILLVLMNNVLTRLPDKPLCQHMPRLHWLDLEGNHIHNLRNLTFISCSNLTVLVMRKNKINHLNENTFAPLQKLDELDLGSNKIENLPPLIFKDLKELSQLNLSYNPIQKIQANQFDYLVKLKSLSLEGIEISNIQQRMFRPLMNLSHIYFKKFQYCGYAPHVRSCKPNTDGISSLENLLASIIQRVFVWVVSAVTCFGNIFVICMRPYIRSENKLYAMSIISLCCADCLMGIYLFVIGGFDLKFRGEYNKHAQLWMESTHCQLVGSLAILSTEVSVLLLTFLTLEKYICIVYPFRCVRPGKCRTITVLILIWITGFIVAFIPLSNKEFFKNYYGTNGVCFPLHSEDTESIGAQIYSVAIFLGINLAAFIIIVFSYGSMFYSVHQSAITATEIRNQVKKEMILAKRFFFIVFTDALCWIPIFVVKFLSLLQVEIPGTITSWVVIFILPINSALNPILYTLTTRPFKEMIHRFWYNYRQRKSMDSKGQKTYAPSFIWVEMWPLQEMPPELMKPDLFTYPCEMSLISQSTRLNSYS
Description: (§1) Cells: HEK293s cells stably transfected with human RXFP1 in pIRESneo3 was employed.

human RXFP1 [5] = target: T1, human RXFP1; test: Human RXFP1 cGMP Production Assay (Test G); assay type: cell-based; settings: HEK293s cells stably transfected with human RXFP1
Protocol: Human RXFP1 cGMP Production Assay (Test G)
To profile compounds for RXFP1 agonist activity with respect to cGMP production, the Green GENIe cGMP Assay (Montana Molecular; catalogue number D800G) was employed. […] Fluorescence is reduced when cGMP is bound to the biosensor.
as §1
• 2. […] Cells and transduction mastermix were mixed in proportions 30 μL cells and 20 μL mastermix for a single well. • 6. […] Plate was incubated in the dark at 37° C., 5% CO2 for 24 h.
• 8. Medium was removed from plates using a Bluewasher (BluCatBio). • 9. 20 μL assay buffer was added with a Multidrop Combi (ThermoFisher). • 10. Plate was incubated in the dark at room temperature for 30 min prior to assaying. • 11. Plates were assayed using a FLIPR Tetra (Molecular Devices): 10 μL compound diluted with assay buffer was added to each well by the FLIPR Tetra and measuring green fluorescence over time for up to 3 h.
After subtraction of background fluorescence (before addition of compounds), area under curve values from 0 to 90 min after compound addition was used for calculation of responses.

[6] = cited from earlier work

COc1cc(F)c(O[C@H]2CC[C@@](C)(C(=O)O)CC2)cc1C(=O)N[C@@H]1[C@H]2CC[C@H](C2)[C@@H]1C(=O)NCC1(C)CCC1 [Compound (I), (1S,4s)-4-(2-fluoro-4-methoxy-5-(((1S,2R,3S,4R)-3-(((1-methylcyclobutyl)methyl)carbamoyl)bicyclo[2.2.1]heptan-2-yl)carbamoyl)phenoxy)-1-methylcyclohexane-1-carboxylic acid]
solubility ([1]; simulated gastric fluid pH 1.2 (SGF), simulated gastric fluid, kinetic from dmso stock, amorphous nanosuspension, extrapolation of light scattering to zero intensity): 8 µM (≈ 4.36 µg/mL)
Mean light scattering intensity ([1]; total concentration 1.2 uM): 0.16 a.u.
Mean light scattering intensity ([1]; total concentration 2.5 uM): 0.28 a.u.
Mean light scattering intensity ([1]; total concentration 3.7 uM): 0.33 a.u.
Mean light scattering intensity ([1]; total concentration 6.1 uM): 0.33 a.u.
Mean light scattering intensity ([1]; total concentration 8.5 uM): 1.71 a.u.
Mean light scattering intensity ([1]; total concentration 10.8 uM): 4.94 a.u.
Mean light scattering intensity ([1]; total concentration 13.0 uM): 8.19 a.u.
Mean light scattering intensity ([1]; total concentration 15.3 uM): 11.77 a.u.
Mean light scattering intensity ([1]; total concentration 17.4 uM): 15.33 a.u.
Mean light scattering intensity ([1]; total concentration 19.6 uM): 18.47 a.u.
Test B Human Plasma Protein Binding (% free) (Human Plasma Protein): 4.3 % free
solubility [2]: > 500 µM

COc1cc(F)c(O[C@H]2CC[C@@](C)(C(=O)O)CC2)cc1C(=O)N[C@@H]1[C@H]2CC[C@H](C2)[C@@H]1C(=O)NCC1(C)CCC1 [Form A of Compound (I), (1S,4s)-4-(2-Fluoro-4-methoxy-5-(((1S,2R,3S,4R)-3-(((1-methylcyclobutyl)methyl)carbamoyl)bicyclo[2.2.1]heptan-2-yl)carbamoyl)phenoxy)-1-methylcyclohexane-1-carboxylic acid]
solubility at 24 h [3]: 0.4 µM (≈ 0.218 µg/mL)

relaxin2
EC50 (human RXFP1 [4]): 0.038 nM
EC50 (human RXFP1 [5]): 0.085 nM

serelaxin
blood pressure drop ([6]; approximately one third of the patients, intravenous): > 40 mm Hg
markers of cardiac, renal and hepatic damage and congestion ([6]; hospitalized patients, continuous intravenous administration): improved
clearance from the patients' circulation ([6]; patients): rapid clearance
